According to patent US10059697B2, “Compounds and combinations for the treatment of HIV” (priority 2015, dated 2018):
Where two headings read alike, the source gives them in different places.

System: HIV-1 expression in latently infected resting CD4 T cells from HIV-1 Infected Subjects on cART
Test: microbe, parasite or virus in culture
Format: cell-based
Conditions: Human immunodeficiency virus 1, CD4+ T; for fold induction at 0.015 µM: 24 h; for fold induction at 0.04 µM: 4 h, read-out: Fold HIV Activation, Geometric Mean, 40 nM Romidepsin, 4 h pulse; for fold induction at 0.3 µM: 0.25 h, read-out: Fold HIV Activation, Geometric Mean, 0.3 μM Carfilzomib, 15 min pulse
Procedure: The leukapheresis product was diluted with PBS and layered over Ficoll for isolation of PBMCs. PBMCs were treated with red blood cell lysis buffer and rested overnight (10 million cells/ml) in tissue culture medium (RPMI 1640 supplemented with 10% FBS and Pen/Strep) before the isolation of resting (CD69-CD25-HLA-DR-) CD4 T cells according to the manufacturer's instructions (EasySep Human CD4 T cell Enrichment Kit modified to also deplete CD69+, CD25+, or HLA-DR+ cells). Resting CD4 T cells were cultured in four replicate wells per condition with the indicated compounds or with dimethyl sulfoxide (DMSO, vehicle control) for 6 days. To assess latency reversal that occurs in response to mitogenic activation of T cells, cells were incubated with 50 ng/ml phorbol 12-myristate 13-acetate (PMA) and 500 ng/ml ionomycin. Unless otherwise indicated, continuous exposure was used. Where pulses are indicated, at the end of the pulse, cells were spun three times at 500×g for 5 min, supernatant was decanted and replaced with an equal volume of fresh media. When in combination with another compound that was not pulsed, the compound with continuous exposure was added back at the indicated concentration. The cultures were maintained in the presence of antivirals (elvitegravir and efavirenz at 100 nM each) to prevent viral spread and amplification in order to measure the quantity of virions produced (latency reversal) by the indicated compounds. At the end of the incubation period, cell-free culture supernatants were harvested and HIV-1 RNA levels were quantified by the COBAS® AmpliPrep/COBAS® TaqMan HIV-1 Test, v2.0 (Roche). Romidepsin was used as a control. Romidepsin is a HDAC inhibitor with HIV latency reversal activity (PLoS pathogens (2015), 11(9), e1005142). The combination of a phorbol ester (PMA) and a calcium ionophore (ionomycin) was also used as a mitogenic control that has strong HIV latency reversal activity. As this combination induces global T cell proliferation and activation, systemic administration would likely induce significant toxicity. As such, PMA and ionomycin are useful strictly as a tool to monitor the amount of virus that can be produced in response to a strongly activating stimuli.

In the case of `COC[C@H](NC(=O)c1cnc(C)s1)C(=O)N[C@@H](COC)C(=O)N[C@@H](Cc1ccccc1)C(=O)[C@@]1(C)CO1` [Oprozomib, oprozomib, reference compound], the fold induction at 0.1 µM (1 h, read-out: Fold HIV Activation, Geometric Mean, 100 nM Oprozomib, 1 hr pulse, geometric mean of subjects, Table 7 (n = 7)) is reported as 2.37.
`N#Cc1ncn(CC(=O)Nc2ccc3oc4ccccc4c3c2)n1` [Compound 1] gave a fold induction at 1 µM (read-out: Fold HIV Activation, Geometric Mean, 1 μM Compound 1, geometric mean of subjects, Table 1 (n = 10)) of 1.03, a fold induction at 3 µM (read-out: Fold HIV Activation, Geometric Mean, 3 μM Compound 1, geometric mean of subjects, Table 1 (n = 10)) of 2.94 and a fold induction at 3 µM (read-out: Fold HIV Activation, Geometric Mean, 3 μM Compound 1, geometric mean of subjects, Table 5 (n = 10)) of 3.12. For the same compound, the fold induction at 3 µM (read-out: Fold HIV Activation, Geometric Mean, 3 μM Compound 1, geometric mean of subjects, Table 6 (n = 9)) was 3.53, the fold induction at 3 µM (read-out: Fold HIV Activation, Geometric Mean, 3 μM Compound 1, geometric mean of subjects, Table 7 (n = 7)) was 5.92 and the fold induction at 6 µM (read-out: Fold HIV Activation, Geometric Mean, 6 μM Compound 1, geometric mean of subjects, Table 1 (n = 10)) was 6.32.
With `CC(C)C[C@H](NC(=O)[C@H](Cc1ccccc1)NC(=O)c1cnccn1)B(O)O` [Bortezomib, bortezomib, reference compound] the fold induction at 0.015 µM (read-out: Fold HIV Activation, 15 nM bortezomib, 24 hr pulse, individual subjects, Table 8) was 3.47, the fold induction at 0.015 µM (read-out: Fold HIV Activation, 15 nM bortezomib, 24 hr pulse, individual subjects, Table 9) was 3.47 and the fold induction at 0.015 µM (read-out: Fold HIV Activation, Geometric Mean, 15 nM Bortezomib 24 h pulse, geometric mean of subjects, Table 5 (n = 10)) was 1.36. It also gave a fold induction at 0.015 µM (read-out: Fold HIV Activation, Geometric Mean, 15 nM bortezomib, 24 hr pulse, geometric mean of subjects, Table 8 (n = 2)) of 3.64, a fold induction at 0.015 µM (read-out: Fold HIV Activation, Geometric Mean, 15 nM bortezomib, 24 hr pulse, geometric mean of subjects, Table 9 (n = 2)) of 3.64 and a fold induction at 0.015 µM (read-out: Fold HIV Activation, Geometric Mean, 15 nM bortezomib, 24 hr pulse, geometric mean of subjects, Table 10 (n = 3)) of 2.23.
`C#CCOc1cc2c(cc1NC(=O)Cn1cnc(C#N)n1)oc1ccccc12` [Compound 4, 2-(3-cyano-1H-1,2,4-triazol-1-yl)-N-(2-(prop-2-yn-1-yloxy)dibenzo[b,d]furan-3-yl)acetamide] showed a fold induction at 1 µM (144 h, read-out: Fold HIV Activation, 1 μM Compound 4, 6 days, individual subjects, Table 4) of 1.09, a fold induction at 6 µM (144 h, read-out: Fold HIV Activation, 6 μM Compound 4, 6 days, individual subjects, Table 4) of 3.03 and a fold induction at 1 µM (read-out: Fold HIV Activation, Geometric Mean, 1 μM Compound 4, geometric mean of subjects, Table 4 (n = 5)) of 1.09. The fold induction at 3 µM (read-out: Fold HIV Activation, Geometric Mean, 3 μM Compound 4, geometric mean of subjects, Table 4 (n = 5)) was 3.54, the fold induction at 3 µM (read-out: Fold HIV Activation, Geometric Mean, 3 μM Compound 4, geometric mean of subjects, Table 10 (n = 3)) was 3.54 and the fold induction at 6 µM (read-out: Fold HIV Activation, Geometric Mean, 6 μM Compound 4, geometric mean of subjects, Table 4 (n = 5)) was 3.97.
`COc1cc2c(cc1NC(=O)Cn1cnc(C#N)n1)oc1ccccc12` [Compound 2] showed a fold induction at 1 µM (144 h, read-out: Fold HIV Activation, 1 μM Compound 2, 6 days, individual subjects, Table 2) of 1.04, a fold induction at 6 µM (144 h, read-out: Fold HIV Activation, 6 μM Compound 2, 6 days, individual subjects, Table 2) of 4.41 and a fold induction at 3 µM (read-out: Fold HIV Activation, 3 μM Compound 2, individual subjects, Table 8) of 3.42. For the same compound, the fold induction at 1 µM (read-out: Fold HIV Activation, Geometric Mean, 1 μM Compound 2, geometric mean of subjects, Table 2 (n = 8)) was 1.09, the fold induction at 3 µM (read-out: Fold HIV Activation, Geometric Mean, 3 μM Compound 2, geometric mean of subjects, Table 2 (n = 8)) was 2.76 and the fold induction at 3 µM (read-out: Fold HIV Activation, Geometric Mean, 3 μM Compound 2, geometric mean of subjects, Table 8 (n = 2)) was 2.46. The fold induction at 3 µM (read-out: Fold HIV Activation, Geometric Mean, 3 μM Compound 2, geometric mean of subjects, Table 11 (n = 3)) was 2.75 and the fold induction at 6 µM (read-out: Fold HIV Activation, Geometric Mean, 6 μM Compound 2, geometric mean of subjects, Table 2 (n = 8)) was 3.56.
With `N#Cc1ncn(CC(=O)Nc2ccc3c(c2)C(=O)c2ccccc2-3)n1` [Compound 3, 2-(3-cyano-1H-1,2,4-triazol-1-yl)-N-(9-oxo-9H-fluoren-2-yl)acetamide] the fold induction at 6 µM (144 h, read-out: Fold HIV Activation, 6 μM Compound 3, 6 days, individual subjects, Table 3) was 3.75, the fold induction at 1 µM (read-out: Fold HIV Activation, Geometric Mean, 1 μM Compound 3, geometric mean of subjects, Table 3 (n = 8)) was 1.62 and the fold induction at 3 µM (read-out: Fold HIV Activation, Geometric Mean, 3 μM Compound 3, geometric mean of subjects, Table 3 (n = 8)) was 2.31. It also gave a fold induction at 3 µM (read-out: Fold HIV Activation, Geometric Mean, 3 μM Compound 3, geometric mean of subjects, Table 9 (n = 2)) of 1.99, a fold induction at 3 µM (read-out: Fold HIV Activation, Geometric Mean, 3 μM Compound 3, geometric mean of subjects, Table 12 (n = 3)) of 2.59 and a fold induction at 6 µM (read-out: Fold HIV Activation, Geometric Mean, 6 μM Compound 3, geometric mean of subjects, Table 3 (n = 8)) of 2.61.
`C/C=C1\NC(=O)[C@H]2CSSCC/C=C/[C@H](CC(=O)N[C@H](C(C)C)C(=O)N2)OC(=O)[C@H](C(C)C)NC1=O` [Romidepsin, reference compound] showed a fold induction at 0.04 µM (geometric mean of subjects, Table 1 (n = 10)) of 2.73, a fold induction at 0.04 µM (geometric mean of subjects, Table 2 (n = 8)) of 3.16 and a fold induction at 0.04 µM (geometric mean of subjects, Table 3 (n = 8)) of 3.16. The fold induction at 0.04 µM (geometric mean of subjects, Table 4 (n = 5)) was 2.33.
Compound `CC(C)C[C@H](NC(=O)[C@H](CCc1ccccc1)NC(=O)CN1CCOCC1)C(=O)N[C@@H](Cc1ccccc1)C(=O)N[C@@H](CC(C)C)C(=O)[C@@]1(C)CO1` [Carfilzomib, carfilzomib, reference compound] has a fold induction at 0.3 µM (geometric mean of subjects, Table 6 (n = 9)) of 1.04, a fold induction at 0.3 µM (geometric mean of subjects, Table 11 (n = 3)) of 0.94 and a fold induction at 0.3 µM (geometric mean of subjects, Table 12 (n = 3)) of 0.94.
